target: T1, ERR1 (also known as ERR-α or ERR-1) (Homo sapiens, UniProt P11474); assay: TR-FRET assay: disruption of co-activator peptide binding to ERR1 LBD; assay type: biochemical; conditions: 6His-tagged ERR1 LBD 6 nM, GST-SRC-2 peptide 6 nM, 25° C., 4-18 hours; average of 3 independent experiments
T1 construct: the ^6His-tagged-ERR1 LBD
T1 sequence (P11474 193-421 limits assumed): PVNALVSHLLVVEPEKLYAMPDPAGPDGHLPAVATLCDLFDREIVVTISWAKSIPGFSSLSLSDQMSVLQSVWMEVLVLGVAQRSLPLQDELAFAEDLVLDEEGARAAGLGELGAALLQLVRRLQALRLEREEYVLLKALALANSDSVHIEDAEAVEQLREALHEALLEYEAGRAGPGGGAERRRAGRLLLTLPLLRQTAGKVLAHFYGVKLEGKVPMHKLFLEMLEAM
Procedure, shortened: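 The 6His-ERR1 LBD and a GST-hSRC2 co-activator peptide were detected by α-GST Eu cryptate and α-6His-XL665 TR-FRET. Buffer was 25 mM Tris pH 8, 2.5 mM Hepes, 20 mM KCl, 1 mM DTT, 0.05 mg/mL BSA, equilibrated 4-18 h at 25° C. Dose-response curves were fitted hyperbolically and averaged over 3 independent experiments.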

Structure (SMILES) | EC50 [nM]
COc1cc(/C=C2\SC(N3CCNC(=O)C3)=NC2=O)ccc1Oc1ccc(C(F)(F)F)cc1C(F)(F)F [Example 59, 4-{5-[4-(2,4-Bis-trifluoromethyl-phenoxy)-3-methoxy-benzylidene]-4-oxo-4,5-dihydro-thiazol-2-yl}-piperazin-2-one] | 140
COc1cc(/C=C2\SC(NCCN3CCCC3=O)=NC2=O)ccc1Oc1ccc(C#N)cc1Cl [Example 63, 3-Chloro-4-(2-methoxy-4-{4-oxo-2-[2-(2-oxo-pyrrolidin-1-yl)-ethylamino]-4H-thiazol-5-ylidenemethyl}-phenoxy)-benzonitrile] | 75

The remaining compounds from weak to strong by EC50, led by results:

EC50 [nM] | Structure (SMILES)
25 | N#Cc1ccc(Oc2ccc(/C=C3\SC(NCCF)=NC3=O)cc2F)c(C(F)(F)F)c1 [Example 96, 4-{2-Fluoro-4-[2-(2-fluoro-ethylamino)-4-oxo-4H-thiazol-5-ylidenemethyl]-2-fluoro-phenoxy}-3-trifluoromethyl-benzonitrile]
5 | COc1cc(/C=C2\SC(NCc3nnn[nH]3)=NC2=O)ccc1Oc1ccc(C#N)cc1C(F)(F)F [Example 107, 4-(2-Methoxy-4-{4-oxo-2-[(1H-tetrazol-5-ylmethyl)-amino]-4H-thiazol-5-ylidenemethyl}-phenoxy)-3-trifluoromethyl-benzonitrile]
4 | COc1cc(/C=C2\SC(NCCN3CCCC3=O)=NC2=O)ccc1Oc1ccc(Cl)cc1C(F)(F)F [Example 60, 5-[4-(4-Chloro-2-trifluoromethyl-phenoxy)-3-methoxy-benzylidene]-2-[2-(2-oxo-pyrrolidin-1-yl)-ethylamino]-thiazol-4-one]

— patent US8580832B2, “Substituted phenoxy aminothiazolones as estrogen related receptor-α modulators” (Janssen Pharmaceutica N.V., priority 2007, dated 2013)
